From ChEMBL document CHEMBL1136180, “Isolation of bisindole alkaloids that inhibit the cell cycle from Myxomycetes Arcyria ferruginea and Tubifera casparyi” (Bioorg Med Chem Lett, 2003) come the findings set out here.

Molecules are shown by their SMILES.

In assay [1] the test system is HeLa. As to the kind of experiment: Compound was tested at concentration of 280 nM for HeLa cell cycle inhibition; arrest of G2/M phase. Type of assay: functional, cell-based. Conditions: Homo sapiens.
The test system of assay [2] is HeLa. As to the kind of experiment: Compound was tested at concentration of 28 nM for HeLa cell cycle inhibition; arrest of G1 phase. The class given is functional, cell-based. The following applies: Homo sapiens.

As to `O=C1NC(=O)c2c1c1c3ccc(O)cc3[nH]c1c1[nH]c3cc(O)ccc3c21`, the Concentration in assay [1] was determined as 100 ng/mL; in assay [2] it was 10 ng/mL.
